#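 Grown in 96-well plates, cells were treated for 48 hours with each compound at five concentrations. Insufficient inhibition: endpoint recorded as highest concentration tested. TGI is the concentration that stops growth completely.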
# Columns and labels:
# Experiment in all cases: growth of human tumour cells (NCI), 48 h
# [1] = test system: 786-0 renal
# [2] = test system: A498 renal
# [3] = test system: A549 NSCLC
# [4] = test system: ACHN renal
# [5] = test system: BT-549 breast
# [6] = test system: CAKI-1 renal
# [7] = test system: CCRF-CEM leukemia
# [8] = test system: COLO 205 colon
# [9] = test system: DU-145 prostate
# [10] = test system: EKVX NSCLC
# [11] = test system: HCC-2998 colon
# [12] = test system: HCT-116 colon
# [13] = test system: HCT-15 colon
# [14] = test system: HL-60(TB) leukemia
# [15] = test system: HOP-62 NSCLC
# [16] = test system: HOP-92 NSCLC
# [17] = test system: HS 578T breast
# [18] = test system: HT29 colon
# [19] = test system: IGROV1 ovarian
# [20] = test system: K-562 leukemia
# [21] = test system: KM12 colon
# [22] = test system: LOX IMVI melanoma
# [23] = test system: M14 melanoma
# [24] = test system: MALME-3M melanoma
# [25] = test system: MCF7 breast
# [26] = test system: MDA-MB-231 breast
# [27] = test system: MDA-MB-435
# [28] = test system: MDA-N
# [29] = test system: MOLT-4 leukemia
# [30] = test system: NCI-H226 lung
# [31] = test system: NCI-H23 lung
# [32] = test system: NCI-H460 lung
# [33] = test system: NCI-H522 lung
# [34] = test system: NCI/ADR-RES ovarian
# [35] = test system: OVCAR-3 ovarian
# [36] = test system: OVCAR-4 ovarian
# [37] = test system: OVCAR-5 ovarian
# [38] = test system: OVCAR-8 ovarian
# [39] = test system: PC-3 prostate
# [40] = test system: RPMI-8226 leukemia
# [41] = test system: RXF 393 renal
# [42] = test system: SF-268 CNS
# [43] = test system: SF-295 CNS
# [44] = test system: SF-539 CNS
# [45] = test system: SK-MEL-2 melanoma
# [46] = test system: SK-MEL-28 melanoma
# [47] = test system: SK-MEL-5 melanoma
# [48] = test system: SK-OV-3 ovarian
# [49] = test system: SN12C renal
# [50] = test system: SNB-19 CNS
# [51] = test system: SNB-75 CNS
# [52] = test system: SR leukemia
# [53] = test system: SW-620 colon
# [54] = test system: T-47D breast
# [55] = test system: TK-10 renal
# [56] = test system: U251 CNS
# [57] = test system: UACC-257 melanoma
# [58] = test system: UACC-62 melanoma
# [59] = test system: UO-31 renal
# [60] = test system: DLD-1 colon
# [61] = test system: DMS 114 small cell lung
# [62] = test system: DMS 273 small cell lung
# [63] = test system: KM20L2 colon
# [64] = test system: LXFL 529 NSCLC
# [65] = test system: M19-MEL melanoma
compound,measurement,setting,value
CC(C)(C)c1cc(C(P(=O)(c2ccccc2)c2ccccc2)P(=O)(c2ccccc2)c2ccccc2)cc(C(C)(C)C)c1O,TGI,[1],7.23 µM
same,TGI,[2],5.08 µM
same,TGI,[3],> 8.98 µM
same,TGI,[4],> 10 µM
same,TGI,[5],> 8.23 µM
same,TGI,[6],9.9 µM
same,TGI,[7],7.88 µM
same,TGI,[8],3.31 µM
same,TGI,[9],> 10 µM
same,TGI,[10],> 10 µM
same,TGI,[11],4.45 µM
same,TGI,[12],3.23 µM
same,TGI,[13],6.96 µM
same,TGI,[14],> 8.2 µM
same,TGI,[15],5.13 µM
same,TGI,[16],5.65 µM
same,TGI,[17],6.27 µM
same,TGI,[18],4.39 µM
same,TGI,[19],5.74 µM
same,TGI,[20],9.93 µM
same,TGI,[21],3.37 µM
same,TGI,[22],4.04 µM
same,TGI,[23],3.84 µM
same,TGI,[24],6.38 µM
same,TGI,[25],> 8.8 µM
same,TGI,[26],5.12 µM
same,TGI,[27],4.39 µM
same,TGI,[28],3.93 µM
same,TGI,[29],> 8.09 µM
same,TGI,[30],9.13 µM
same,TGI,[31],7.3 µM
same,TGI,[32],4.44 µM
same,TGI,[33],5.26 µM
same,TGI,[34],6.16 µM
same,TGI,[35],5.41 µM
same,TGI,[36],> 10 µM
same,TGI,[37],> 6.72 µM
same,TGI,[38],8.95 µM
same,TGI,[39],7.67 µM
same,TGI,[40],> 7.73 µM
same,TGI,[41],7.09 µM
same,TGI,[42],> 9.47 µM
same,TGI,[43],3.85 µM
same,TGI,[44],3.88 µM
same,TGI,[45],3.88 µM
same,TGI,[46],4.71 µM
same,TGI,[47],2.94 µM
same,TGI,[48],> 10 µM
same,TGI,[49],> 9.06 µM
same,TGI,[50],> 10 µM
same,TGI,[51],7.39 µM
same,TGI,[52],> 8.37 µM
same,TGI,[53],> 9.23 µM
same,TGI,[54],> 10 µM
same,TGI,[55],9.87 µM
same,TGI,[56],6.68 µM
same,TGI,[57],4.18 µM
same,TGI,[58],3.32 µM
same,TGI,[59],6.99 µM
O=C(c1ccc(O)cc1)C1c2c3c(cc(O)c2C(c2ccc(O)cc2)C1c1cc(O)cc(O)c1)OC(c1ccc(O)cc1)C3c1cc2c(cc1O)OC(c1ccc(O)cc1)C2c1cc(O)cc(O)c1 (centres undefined),TGI,[1],> 12.5 µM
same,TGI,[2],> 12.5 µM
same,TGI,[3],> 12.5 µM
same,TGI,[4],> 12.5 µM
same,TGI,[6],> 12.5 µM
same,TGI,[7],> 12.5 µM
same,TGI,[8],> 12.5 µM
same,TGI,[60],> 12.5 µM
same,TGI,[61],> 12.5 µM
same,TGI,[62],> 12.5 µM
same,TGI,[10],> 12.5 µM
same,TGI,[11],> 12.5 µM
same,TGI,[12],> 12.5 µM
same,TGI,[13],> 12.5 µM
same,TGI,[14],> 12.5 µM
same,TGI,[15],> 12.5 µM
same,TGI,[16],> 12.5 µM
same,TGI,[20],> 12.5 µM
same,TGI,[21],> 12.5 µM
same,TGI,[63],> 12.5 µM
same,TGI,[22],> 12.5 µM
same,TGI,[64],> 12.5 µM
same,TGI,[23],> 12.5 µM
same,TGI,[65],> 12.5 µM
same,TGI,[24],> 12.5 µM
same,TGI,[29],> 12.5 µM
same,TGI,[30],> 12.5 µM
same,TGI,[31],> 12.5 µM
same,TGI,[32],> 12.5 µM
same,TGI,[33],> 12.5 µM
same,TGI,[35],> 12.5 µM
same,TGI,[36],> 12.5 µM
same,TGI,[37],> 12.5 µM
same,TGI,[38],> 12.5 µM
same,TGI,[40],> 12.5 µM
same,TGI,[42],> 12.5 µM
same,TGI,[44],> 12.5 µM
same,TGI,[45],> 12.5 µM
same,TGI,[46],> 12.5 µM
same,TGI,[47],> 12.5 µM
same,TGI,[49],> 12.5 µM
same,TGI,[50],> 12.5 µM
same,TGI,[51],> 12.5 µM
same,TGI,[52],> 12.5 µM
same,TGI,[53],> 12.5 µM
same,TGI,[55],> 12.5 µM
same,TGI,[56],> 12.5 µM
same,TGI,[57],> 12.5 µM
same,TGI,[58],> 12.5 µM
same,TGI,[59],> 12.5 µM
